Results taken from patent US8450331B2, “Thiophenyl-substituted 2-imino-3-methyl pyrrolo pyrimidinone compounds as BACE-1 inhibitors, compositions, and their use” (Merck Sharp & Dohme Corp., priority 2008, dated 2013).
Like-named read-outs stand apart in the source and are kept apart here. One block for each compound: values may come before it.

Experiments:
CYP3A4 = molecular target: T1, CYP3A4 (Homo sapiens, UniProt P08684); assay: CYP inhibition assay, human liver microsomes, CYP3A4; assay type: in vitro ADME
T1 construct: human liver microsomes (0.4 mg/ml); from tissue; host or cells: human liver microsomes

CYP2D6 = molecular target: T2, CYP2D6 (Homo sapiens, UniProt P10635); assay: CYP inhibition assay, human liver microsomes, CYP2D6; assay type: in vitro ADME
T2 construct: human liver microsomes (0.4 mg/ml); from tissue; host or cells: human liver microsomes
Experimental: (§1) The test article was dissolved in methanol at a concentration of 5 mM. Dilutions of the stock solution were also prepared in methanol. The substrate concentration was kept near the Km value for each CYP reaction. The substrates were 100 μM phenacetin (O-deethylase reaction) for CYP1A2, 16 μM dextromethorphan (O-demethylase reaction) for CYP2D6, 100 μM testosterone (6β-hydroxylase reaction) and 5 μM midazolam (1′-hydroxylase reaction) for CYP3A4, 200 μM tolbutamide (4-hydroxylase reaction) for CYP2C9, 125 μM S-(+)-mephenyloin (4-hydroxylase reaction) for CYP2C19 and 5 μM paclitaxel (6[…]-hydroxylase reaction) for CYP2C8. The reactions were terminated by the addition of 35% perchloric acid to a final concentration of 4.5% (vol:vol). The concentrations of the metabolites formed from each substrate after incubation were determined by LC-MS/MS using a standard curve.
(§2) To evaluate metabolism/mechanism-based inhibition, the test article, at the stated concentrations (0 to 50 μM), was pre-incubated with human liver microsomes for 30 min at 37° C. in the presence of NADPH and in the absence of the substrates. After the pre-incubation step, the CYP substrates were added at the previously stated concentrations and the reactions were allowed to proceed as indicated in the previous paragraph.

[1] = molecular target: T3, soluble human BACE1 catalytic domain (Homo sapiens, UniProt P56817); assay: BACE1 HTRF FRET assay; assay type: biochemical; details: calculated from IC50 by Cheng-Prusoff; QSY7-APPswe-Eu substrate, pH 5.0
T3 construct: purified human BACE1 catalytic domain

CYP2C9 = molecular target: T4, CYP2C9 (Homo sapiens, UniProt P11712); assay: CYP inhibition assay, human liver microsomes, CYP2C9; assay type: in vitro ADME
T4 construct: human liver microsomes (0.4 mg/ml); from tissue; host or cells: human liver microsomes
Experimental: as §1, §2

hERG = molecular target: T5, hERG (Homo sapiens, UniProt Q12809); assay: hERG rubidium efflux in hERG-CHO cells; assay type: cell-based; details: CHO cells that express hERG (hERG-CHO); for inhibition at 30 min, 1.5 uG/mL: pH 7.4, 1.5 uG/mL, read-out: HERG Rb efflux % Inhib 1.5 uG/mL; for inhibition at 30 min, 5 uG/mL: pH 7.4, 5 uG/mL, read-out: HERG Rb efflux % Inhib 5 uG/mL
T5 construct: expressed in transfected cells; host or cells: CHO cells (hERG-CHO)
Experimental: The base solution for the rubidium efflux studies was 144 mM NaCl, 20 mM HEPES-NaOH (pH 7.4), 2 mM CaCl2, 1 mM MgCl2, and 11 mM glucose. To prepare the rubidium loading buffer 5.4 mM RbCl was added. The wash buffer was supplemented with 5.4 mM KCl. The depolarization buffer was prepared by adding 40 mM KCl to the wash buffer. Drugs were added as 4× stocks containing 10% DMSO with a resulting final DMSO concentration of 2.5%.
hERG-CHO cells were plated into 96-well flat-bottom dishes and returned to the incubator for 24 hours. On the day of study, culture medium was removed and replaced by a HEPES-buffered saline solution containing 5.4 mM RbCl. Cells were returned to the tissue culture incubator for 3 hours to permit rubidium loading. […] Plates were then washed 3× with HEPES buffered saline containing 5.4 mM KCl and zero rubidium. After the 3rd wash cells were depolarized by the addition of 200 μl HEPES buffered saline containing 45.4 mM KCl. Cells were incubated in the depolarization solution for 5 minutes to permit efflux of rubidium. Supernatants were then collected and analyzed for rubidium content using automated flame atomic absorbance spectroscopy (ICR-8000, Aurora Biosciences). Percent inhibition was quantified based on a signal window defined by no block (vehicle) and full block with 10 μM dofetilide. All pipetting steps for the rubidium efflux screen were implemented using a pipetting robot capable of making simultaneous additions and removals from 96 wells (Quadra-96).

human liver Cathepsin D = molecular target: T6, human liver Cathepsin D (Homo sapiens, UniProt P07339); assay: Human Cathepsin D FRET assay; assay type: biochemical; details: selectivity with respect to Cathepsin D versus BACE1
T6 construct: Purified (>95%) human liver Cathepsin D; purchased Athens Research & Technology 16-12-030104; host or cells: human liver (tissue-derived)

BACE1 = molecular target: T7, BACE1 (Homo sapiens, UniProt P56817); assay: BACE inhibitor whole cell IC50 determination using HEK293-APPswe/lon cells (Aβ40); assay type: cell-based; details: 4 hours, Aβ40 in media, read-out: BACE1 A[…]40 IC50
T7 construct: endogenous in cells; host or cells: HEK293 stably transfected with human APP cDNA (Swedish and London mutations)

[2] = 30 min pre-incubation with NADPH, read-out: CYP 3A4 IC50 pre
[3] = co-incubation, read-out: CYP 3A4 IC50 co
[4] = 30 min pre-incubation with NADPH, read-out: CYP 2D6 IC50 pre
[5] = co-incubation, dextromethorphan substrate, read-out: CYP 2D6 IC50 co
[6] = 30 min pre-incubation with NADPH, read-out: CYP 2C9 IC50 pre
[7] = co-incubation, tolbutamide substrate, read-out: CYP 2C9 IC50 co

T3 sequence (P56817 75-416 limits assumed): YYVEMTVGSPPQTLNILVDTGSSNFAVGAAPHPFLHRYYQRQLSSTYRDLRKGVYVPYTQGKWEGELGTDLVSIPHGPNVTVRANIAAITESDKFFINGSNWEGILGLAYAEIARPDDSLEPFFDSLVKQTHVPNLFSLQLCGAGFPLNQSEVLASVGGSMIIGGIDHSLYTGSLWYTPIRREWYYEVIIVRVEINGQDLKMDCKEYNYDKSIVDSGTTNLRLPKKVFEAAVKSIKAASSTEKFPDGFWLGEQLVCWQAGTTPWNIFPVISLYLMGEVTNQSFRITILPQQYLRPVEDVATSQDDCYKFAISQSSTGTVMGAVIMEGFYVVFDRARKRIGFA
T6 sequence (P07339 169-412 limits assumed): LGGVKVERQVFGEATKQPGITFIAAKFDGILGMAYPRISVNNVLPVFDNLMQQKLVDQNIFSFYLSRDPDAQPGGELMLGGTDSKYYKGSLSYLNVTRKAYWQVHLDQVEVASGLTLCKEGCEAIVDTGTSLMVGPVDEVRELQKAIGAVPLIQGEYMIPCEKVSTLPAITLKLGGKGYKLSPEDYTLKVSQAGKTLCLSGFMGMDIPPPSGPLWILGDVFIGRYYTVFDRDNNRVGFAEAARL
T6 sequence (P07339 65-161 limits assumed): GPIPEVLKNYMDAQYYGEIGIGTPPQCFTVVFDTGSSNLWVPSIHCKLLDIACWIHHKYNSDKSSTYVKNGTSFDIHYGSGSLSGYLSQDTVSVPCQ
T2 sequence (P10635 whole entry): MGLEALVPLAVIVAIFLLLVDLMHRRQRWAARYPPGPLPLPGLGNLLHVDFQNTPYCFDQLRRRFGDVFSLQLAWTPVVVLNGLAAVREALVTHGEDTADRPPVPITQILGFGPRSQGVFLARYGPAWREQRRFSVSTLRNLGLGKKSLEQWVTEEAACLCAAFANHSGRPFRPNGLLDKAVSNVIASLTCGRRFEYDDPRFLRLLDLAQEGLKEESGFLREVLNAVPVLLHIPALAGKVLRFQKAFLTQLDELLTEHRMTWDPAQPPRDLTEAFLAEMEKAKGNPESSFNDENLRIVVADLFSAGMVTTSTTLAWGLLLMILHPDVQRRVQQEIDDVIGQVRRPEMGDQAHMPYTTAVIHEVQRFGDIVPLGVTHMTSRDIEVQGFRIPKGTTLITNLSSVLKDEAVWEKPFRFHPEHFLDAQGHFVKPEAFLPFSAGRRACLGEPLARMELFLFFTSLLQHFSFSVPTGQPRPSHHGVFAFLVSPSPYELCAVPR
T5 sequence (Q12809 whole entry): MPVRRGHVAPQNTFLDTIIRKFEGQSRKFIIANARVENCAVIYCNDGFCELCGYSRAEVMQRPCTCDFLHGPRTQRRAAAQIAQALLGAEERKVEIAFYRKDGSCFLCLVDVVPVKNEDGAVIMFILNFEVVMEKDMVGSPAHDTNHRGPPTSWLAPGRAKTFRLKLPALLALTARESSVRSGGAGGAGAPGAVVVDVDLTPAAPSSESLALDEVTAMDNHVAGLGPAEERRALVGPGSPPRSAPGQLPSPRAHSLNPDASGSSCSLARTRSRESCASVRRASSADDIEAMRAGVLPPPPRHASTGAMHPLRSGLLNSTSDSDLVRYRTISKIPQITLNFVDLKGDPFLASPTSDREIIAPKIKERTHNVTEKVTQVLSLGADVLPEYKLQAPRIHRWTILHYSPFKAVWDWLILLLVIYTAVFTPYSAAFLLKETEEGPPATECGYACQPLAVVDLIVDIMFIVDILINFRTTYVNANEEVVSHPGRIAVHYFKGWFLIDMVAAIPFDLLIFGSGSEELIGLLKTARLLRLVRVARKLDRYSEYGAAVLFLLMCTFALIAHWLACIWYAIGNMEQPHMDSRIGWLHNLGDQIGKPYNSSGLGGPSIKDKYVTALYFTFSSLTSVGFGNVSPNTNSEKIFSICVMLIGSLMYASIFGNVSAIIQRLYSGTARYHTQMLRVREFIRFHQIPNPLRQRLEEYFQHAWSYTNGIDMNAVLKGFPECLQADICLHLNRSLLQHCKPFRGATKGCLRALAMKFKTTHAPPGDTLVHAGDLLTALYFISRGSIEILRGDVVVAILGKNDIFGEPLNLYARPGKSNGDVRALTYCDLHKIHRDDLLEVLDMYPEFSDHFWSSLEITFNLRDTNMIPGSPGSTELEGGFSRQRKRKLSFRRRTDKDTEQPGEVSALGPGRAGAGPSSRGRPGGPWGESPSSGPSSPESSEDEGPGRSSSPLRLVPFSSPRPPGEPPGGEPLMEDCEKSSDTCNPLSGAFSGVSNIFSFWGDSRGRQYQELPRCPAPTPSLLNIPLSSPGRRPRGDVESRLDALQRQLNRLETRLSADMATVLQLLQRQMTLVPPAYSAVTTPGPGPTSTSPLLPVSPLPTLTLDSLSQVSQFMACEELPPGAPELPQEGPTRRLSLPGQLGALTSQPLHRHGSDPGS
T7 sequence (P56817 46-501): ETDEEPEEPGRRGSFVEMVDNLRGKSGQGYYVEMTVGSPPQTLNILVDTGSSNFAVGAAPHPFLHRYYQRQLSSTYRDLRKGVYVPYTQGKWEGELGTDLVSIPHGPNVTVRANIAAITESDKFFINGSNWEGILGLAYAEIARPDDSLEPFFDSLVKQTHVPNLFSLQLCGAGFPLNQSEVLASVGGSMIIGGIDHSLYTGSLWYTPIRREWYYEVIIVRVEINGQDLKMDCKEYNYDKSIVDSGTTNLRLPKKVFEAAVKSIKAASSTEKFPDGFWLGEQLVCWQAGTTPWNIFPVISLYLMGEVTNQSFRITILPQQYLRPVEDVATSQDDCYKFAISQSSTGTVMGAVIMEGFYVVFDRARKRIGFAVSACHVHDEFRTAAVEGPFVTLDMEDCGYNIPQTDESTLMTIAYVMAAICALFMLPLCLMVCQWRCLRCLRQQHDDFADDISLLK
T4 sequence (P11712 whole entry): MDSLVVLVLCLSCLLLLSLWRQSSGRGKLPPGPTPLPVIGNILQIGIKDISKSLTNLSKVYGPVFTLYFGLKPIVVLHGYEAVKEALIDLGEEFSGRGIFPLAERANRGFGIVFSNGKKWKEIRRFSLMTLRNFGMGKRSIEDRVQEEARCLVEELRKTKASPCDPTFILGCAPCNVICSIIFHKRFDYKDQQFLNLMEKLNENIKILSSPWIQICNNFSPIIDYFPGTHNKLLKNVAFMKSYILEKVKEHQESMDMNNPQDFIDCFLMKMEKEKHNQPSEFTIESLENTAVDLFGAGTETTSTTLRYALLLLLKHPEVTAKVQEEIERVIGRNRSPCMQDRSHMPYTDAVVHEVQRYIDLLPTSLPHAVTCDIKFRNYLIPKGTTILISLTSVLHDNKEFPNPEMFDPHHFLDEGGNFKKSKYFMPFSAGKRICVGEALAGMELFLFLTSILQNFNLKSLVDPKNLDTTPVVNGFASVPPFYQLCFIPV
T1 sequence (P08684 whole entry): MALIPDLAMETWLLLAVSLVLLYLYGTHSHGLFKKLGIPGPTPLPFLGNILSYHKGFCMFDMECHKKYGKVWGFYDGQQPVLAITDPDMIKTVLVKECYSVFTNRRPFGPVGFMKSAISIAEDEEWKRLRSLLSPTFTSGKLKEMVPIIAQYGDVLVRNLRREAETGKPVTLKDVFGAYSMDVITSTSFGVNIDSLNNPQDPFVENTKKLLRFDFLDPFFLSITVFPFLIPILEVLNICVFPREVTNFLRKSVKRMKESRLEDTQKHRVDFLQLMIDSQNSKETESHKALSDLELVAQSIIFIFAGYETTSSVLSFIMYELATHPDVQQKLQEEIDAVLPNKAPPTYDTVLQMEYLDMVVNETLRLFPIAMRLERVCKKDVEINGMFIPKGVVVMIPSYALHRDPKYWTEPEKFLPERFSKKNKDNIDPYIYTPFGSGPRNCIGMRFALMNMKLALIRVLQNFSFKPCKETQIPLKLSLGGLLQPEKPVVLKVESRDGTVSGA

SMILES: Cc1nc(N2C[C@H]3C(=O)N(C)C(=N)N[C@@]3(c3ccc(Cl)s3)C2)nc(C2CC2)c1F [Example 6]
IC50 (CYP3A4; [2]): 12 µM
IC50 (CYP3A4; [3]): 16 µM
IC50 (CYP2D6; [4]): 21 µM
IC50 (CYP2D6; [5]): > 30 µM
Ki [1]: 0.049 µM
IC50 (CYP2C9; [6]): 19 µM
IC50 (CYP2C9; [7]): 19 µM

SMILES: CCc1nc(N2C[C@H]3C(=O)N(C)C(=N)N[C@@]3(c3ccc(Cl)s3)C2)nc(C)c1F [Example 7]
IC50 (CYP3A4; [2]): > 30 µM
IC50 (CYP3A4; [3]): > 30 µM
IC50 (BACE1): 0.285 µM
IC50 (CYP2D6; [4]): > 30 µM
IC50 (CYP2D6; [5]): > 30 µM
Ki [1]: 0.024 µM
IC50 (CYP2C9; [6]): > 30 µM
IC50 (CYP2C9; [7]): > 30 µM

SMILES: Cc1nc(N2C[C@H]3C(=O)N(C)C(=N)N[C@@]3(c3ccc(C#N)s3)C2)nc(C2CC2)c1F [Example 9]
IC50 (BACE1): 0.315 µM
Ki [1]: 0.049 µM

SMILES: Cc1nc(N2C[C@H]3C(=O)N(C)C(=N)N[C@@]3(c3ccc(Cl)s3)C2)nc(C2CC2)c1Cl [Example 20]
CathD Selectivity (human liver Cathepsin D): 62
inhibition at 30 min, 1.5 uG/mL (hERG): -1%
inhibition at 30 min, 5 uG/mL (hERG): 34%
IC50 (BACE1): 0.215 µM
Ki [1]: 0.0096 µM

SMILES: CCCc1nc(N2C[C@H]3C(=O)N(C)C(=N)N[C@@]3(c3ccc(C#N)s3)C2)nc(C)c1F [Example 16]
CathD Selectivity (human liver Cathepsin D): 16
inhibition at 30 min, 1.5 uG/mL (hERG): 44%
inhibition at 30 min, 5 uG/mL (hERG): 28%
IC50 (BACE1): 0.135 µM
Ki [1]: 0.019 µM

SMILES: COc1nc(N2C[C@H]3C(=O)N(C)C(=N)N[C@@]3(c3ccc(Cl)s3)C2)nc(C)c1F [Example 2]
inhibition at 30 min, 1.5 uG/mL (hERG): 4%
inhibition at 30 min, 5 uG/mL (hERG): 22%
IC50 (CYP2D6; [4]): > 30 µM
IC50 (CYP2D6; [5]): > 30 µM
IC50 (CYP2C9; [6]): 22.8 µM
IC50 (CYP2C9; [7]): 20.3 µM

SMILES: Cc1nc(N2C[C@H]3C(=O)N(C)C(=N)N[C@@]3(c3cc(C#N)cs3)C2)nc(C2CC2)c1F [Example 8]
CathD Selectivity (human liver Cathepsin D): 82
IC50 (CYP3A4; [2]): > 30 µM
IC50 (CYP3A4; [3]): > 30 µM
IC50 (BACE1): 0.21 µM
IC50 (CYP2D6; [4]): > 30 µM
IC50 (CYP2D6; [5]): > 30 µM
Ki [1]: 0.031 µM
IC50 (CYP2C9; [6]): > 30 µM
IC50 (CYP2C9; [7]): > 30 µM

SMILES: CCCc1nc(N2C[C@H]3C(=O)N(C)C(=N)N[C@@]3(c3ccc(Cl)s3)C2)nc(OC)c1F [Example 10]
inhibition at 30 min, 1.5 uG/mL (hERG): 23%
inhibition at 30 min, 5 uG/mL (hERG): 65%
IC50 (CYP3A4; [2]): 11.9 µM
IC50 (CYP3A4; [3]): > 30 µM
IC50 (CYP2D6; [4]): 8.2 µM
IC50 (CYP2D6; [5]): 6.1 µM
IC50 (CYP2C9; [6]): 11.3 µM
IC50 (CYP2C9; [7]): 7.9 µM

Second part, led by results:

IC50 (CYP3A4; [2]): 23 µM
IC50 (CYP3A4; [3]): > 30 µM
IC50 (CYP2D6; [4]): 12.9 µM
IC50 (CYP2D6; [5]): 13.5 µM
Ki [1]: 0.11 µM
IC50 (CYP2C9; [6]): 4.2 µM
IC50 (CYP2C9; [7]): 7.3 µM
SMILES: CCOc1nc(N2C[C@H]3C(=O)N(C)C(=N)N[C@@]3(c3ccc(Cl)s3)C2)nc(CC)c1F [Example 5]
inhibition at 30 min, 1.5 uG/mL (hERG): 10%
inhibition at 30 min, 5 uG/mL (hERG): 22%

CathD Selectivity (human liver Cathepsin D): 47
IC50 (CYP3A4; [2]): ~30 µM
IC50 (CYP3A4; [3]): > 30 µM
IC50 (BACE1): 0.141 µM
IC50 (CYP2D6; [4]): > 30 µM
IC50 (CYP2D6; [5]): > 30 µM
Ki [1]: 0.052 µM
IC50 (CYP2C9; [6]): > 30 µM
IC50 (CYP2C9; [7]): > 30 µM
SMILES: Cc1nc(N2C[C@H]3C(=O)N(C)C(=N)N[C@@]3(c3ccc(C#N)s3)C2)nc(C)c1F [Example 19]
inhibition at 30 min, 1.5 uG/mL (hERG): -5%
inhibition at 30 min, 5 uG/mL (hERG): 3%

IC50 (CYP2D6; [4]): > 30 µM
IC50 (CYP2D6; [5]): > 30 µM
IC50 (CYP2C9; [6]): > 30 µM
IC50 (CYP2C9; [7]): 23.4 µM
SMILES: [H]/N=C1\N[C@@]2(c3ccc(C#N)s3)CN(c3nc(C)c(F)c(OC)n3)C[C@H]2C(=O)N1C [Example 1]
inhibition at 30 min, 1.5 uG/mL (hERG): 1%
inhibition at 30 min, 5 uG/mL (hERG): 10%

IC50 (CYP3A4; [2]): > 30 µM
IC50 (CYP3A4; [3]): > 30 µM
IC50 (CYP2D6; [4]): > 30 µM
IC50 (CYP2D6; [5]): > 30 µM
Ki [1]: 0.047 µM
IC50 (CYP2C9; [6]): > 30 µM
IC50 (CYP2C9; [7]): > 30 µM
SMILES: Cc1nc(N2C[C@H]3C(=O)N(C)C(=N)N[C@@]3(c3ccc(Cl)s3)C2)nc(C)c1F [Example 14]
inhibition at 30 min, 1.5 uG/mL (hERG): 14%
inhibition at 30 min, 5 uG/mL (hERG): 6%

CathD Selectivity (human liver Cathepsin D): 20
IC50 (BACE1): 0.147 µM
Ki [1]: 0.0088 µM
SMILES: CCCc1nc(N2C[C@H]3C(=O)N(C)C(=N)N[C@@]3(c3ccc(Cl)s3)C2)nc(C)c1F [Example 15]
inhibition at 30 min, 1.5 uG/mL (hERG): 35%
inhibition at 30 min, 5 uG/mL (hERG): 40%

IC50 (BACE1): 0.561 µM
Ki [1]: 0.03 µM
SMILES: COc1nc(N2C[C@H]3C(=O)N(C)C(=N)N[C@@]3(c3ccc(Cl)s3)C2)nc(C2CC2)c1Cl [Example 12]
inhibition at 30 min, 1.5 uG/mL (hERG): -7%
inhibition at 30 min, 5 uG/mL (hERG): 34%

IC50 (CYP3A4; [2]): ~30 µM
IC50 (CYP3A4; [3]): > 30 µM
IC50 (CYP2D6; [4]): 19 µM
IC50 (CYP2D6; [5]): 22 µM
IC50 (CYP2C9; [6]): 5.5 µM
IC50 (CYP2C9; [7]): 7.9 µM
SMILES: CCc1nc(N2C[C@H]3C(=O)N(C)C(=N)N[C@@]3(c3ccc(Cl)s3)C2)nc(OC)c1F [Example 4]
inhibition at 30 min, 1.5 uG/mL (hERG): 17%
inhibition at 30 min, 5 uG/mL (hERG): 49%

IC50 (BACE1): 1.32 µM
Ki [1]: 0.151 µM
SMILES: COc1nc(N2C[C@H]3C(=O)N(C)C(=N)N[C@@]3(c3ccc(Cl)s3)C2)nc(C2CC2)c1F [Example 11]
inhibition at 30 min, 1.5 uG/mL (hERG): 26%
inhibition at 30 min, 5 uG/mL (hERG): 72%

Ki [1]: 0.157 µM
SMILES: CCc1nc(N2C[C@H]3C(=O)N(C)C(=N)N[C@@]3(c3ccc(Cl)s3)C2)nc(C2CC2)c1Cl [Example 13]
inhibition at 30 min, 1.5 uG/mL (hERG): 2%
inhibition at 30 min, 5 uG/mL (hERG): 46%
